Results on four compounds are retold here after PMC4981850 (Scientific Reports, 2016).

Broadly, the EC50 is the midpoint of the concentration-response curve. Low readings indicate an effect from little substance, high ones a need for much substance.

Test [1] has as its target T1, hDAT (human dopamine transporter) (Homo sapiens, UniProt Q01959).
T1 construct: gene SLC6A3
Nature of the test: two-electrode voltage clamp (-60 mV), Xenopus oocytes expressing hDAT, block of transporter leak current. Format: cell-based. Background: In two-electrode clamp one electrode senses voltage and the other passes current.

Test [2] has as its target T1, hDAT (human dopamine transporter). Description: two-electrode voltage clamp (-60 mV), Xenopus oocytes expressing hDAT, inward current. It counts as cell-based.

T1 sequence (Q01959 whole entry): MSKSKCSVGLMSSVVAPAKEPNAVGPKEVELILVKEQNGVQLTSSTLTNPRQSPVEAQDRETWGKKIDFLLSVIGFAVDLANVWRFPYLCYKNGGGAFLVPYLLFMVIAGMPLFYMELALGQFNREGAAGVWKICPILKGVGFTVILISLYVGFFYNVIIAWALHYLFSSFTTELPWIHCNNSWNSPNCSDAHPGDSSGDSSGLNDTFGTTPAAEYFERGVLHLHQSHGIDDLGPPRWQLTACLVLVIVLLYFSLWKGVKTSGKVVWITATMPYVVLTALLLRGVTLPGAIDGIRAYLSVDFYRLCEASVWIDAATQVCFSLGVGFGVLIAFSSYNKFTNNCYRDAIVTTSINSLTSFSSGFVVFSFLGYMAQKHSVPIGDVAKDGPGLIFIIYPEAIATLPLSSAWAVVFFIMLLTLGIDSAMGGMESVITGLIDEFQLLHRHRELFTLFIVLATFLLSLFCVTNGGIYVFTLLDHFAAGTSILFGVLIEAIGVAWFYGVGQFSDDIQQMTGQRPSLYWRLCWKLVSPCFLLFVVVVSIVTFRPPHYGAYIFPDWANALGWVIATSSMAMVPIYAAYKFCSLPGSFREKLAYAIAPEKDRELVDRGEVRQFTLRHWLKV

For the compound `C[C@@H]1[C@@H](c2ccccc2)OCCN1C` [2R,3R(−)-PDM, (2R,3R)-(+)-3,4-Dimethyl-2-phenylmorpholine], in test [1], the EC50 was about 23500 nM.

`C[C@H]1NCCO[C@@H]1c1ccccc1` [2R,3R(−)-PM, (2R,3R)-(+)-3-Methyl-2-phenylmorpholine] returned an EC50 in test [2] of 2630 ± 600 nM.

In test [1], `C[C@H]1[C@H](c2ccccc2)OCCN1C` [2S,3S(+)-PDM, (2S,3S)-(+)-3,4-Dimethyl-2-phenylmorpholine] had an EC50 of 2560 ± 820 nM.

`C[C@@H]1NCCO[C@H]1c1ccccc1` [2S,3S(+)-PM, (2S,3S)-(+)-3-Methyl-2-phenylmorpholine] displayed an EC50 in test [2] of 750 ± 140 nM.
